Reference: US20260125371A1, “METHOD FOR INHIBITING CLOSTRIDIOIDES DIFFICILE SPORE GERMINATION” (UNIVERSITY OF NOTRE DAME DU LAC, priority 2022, published 2026)
In brackets after ≈: the same amount, converted by molar mass. Read-outs that look alike come from different tables or passages of the source.

Legend:
C. difficile ATCC 43255 [1] = assay: Determination of minimal-inhibitory concentrations (microdilution), C. difficile ATCC 43255; format: cell-based, Clostridioides difficile; conditions: Clostridioides difficile
[2] = tested on: Lactobacillus gasseri HM-644; conditions: cited from earlier work
Veillonella sp. HM-49 = conditions: cited from earlier work
THP-1 cells = assay: Lactate dehydrogenase (LDH) cytotoxicity assay; format: cell-based, human; conditions: Homo sapiens
C. difficile ATCC 43255 [3] = conditions: cited from earlier work
S. aureus = assay: MIC against S. aureus strains; format: cell-based
[4] = tested on: Lactobacillus reuteri HM-102; conditions: cited from earlier work
Eubacterium sp. HM-178 = conditions: cited from earlier work
[5] = tested on: Bacteroides fragilis HM-709; conditions: cited from earlier work
[6] = tested on: Fusobacterium nucleatum HM-992; conditions: cited from earlier work
[7] = tested on: Corynebacterium spp. HM-784; conditions: cited from earlier work
[8] = tested on: Bifidobacterium longum HM-846; conditions: cited from earlier work
E. faecium = assay: MIC against E. faecium strains; format: cell-based
A. baumanii ATCC17961 = assay: MIC against A. baumanii; format: cell-based; conditions: Acinetobacter baumannii; A. baumanii ATCC17961; read-out: MIC
E. coli ATCC25922 = assay: MIC against E. coli; format: cell-based; conditions: Escherichia coli; E. coli ATCC25922; read-out: MIC
E. aerogenes ATCC35029 = assay: MIC against E. aerogenes; format: cell-based; conditions: Klebsiella aerogenes; E. aerogenes ATCC35029; read-out: MIC
[9] = tested on: S. haemolyticus ATCC 29970; assay: MIC against S. haemolyticus; format: cell-based; conditions: Staphylococcus haemolyticus, ATCC29970
Gram-negative bacteria = format: cell-based
K. pneumoniae ATCC700603 = assay: MIC against K. pneumoniae; format: cell-based; conditions: Klebsiella pneumoniae; K. pneumoniae ATCC700603; read-out: MIC
P. aeruginosa ATCC27853 = assay: MIC against P. aeruginosa; format: cell-based; conditions: Pseudomonas aeruginosa; P. aeruginosa ATCC27853; read-out: MIC
C. difficile ATCC 43255 [10] = assay: Minimal-bactericidal concentration (MBC); format: cell-based, Clostridioides difficile; conditions: MBC/MIC≤4 indicates bactericidal
[11] = ATCC43255, 24 h, C. difficile ATCC 43255, 24 h, read-out: MIC (μg/mL) 24 h
[12] = ATCC43255, Table 1, strain ATCC 43255, read-out: MIC C. difficile
[13] = C. difficile ATCC 43255, earlier publication
[14] = Staphylococcus aureus, ATCC29213, 24 h, S. aureus ATCC 29213, 24 h, read-out: MIC (μg/mL) 24 h
[15] = THP-1, 24 h, read-out: LDH (IC50)
[16] = Enterococcus faecium, read-out: MIC
[17] = Staphylococcus aureus, S. aureus VRS1, read-out: MIC
[18] = S. haemolyticus ATCC 29970, read-out: MIC

| Compound | MIC (C. difficile ATCC 43255 [1]; [11]) [µg/mL] | MIC (C. difficile ATCC 43255 [1]; [12]) [µg/mL] | MIC [2] [µg/mL] | MIC (Veillonella sp. HM-49) [µg/mL] | MIC (C. difficile ATCC 43255 [3]; C. difficile ATCC43255) [µg/mL] | MIC (C. difficile ATCC 43255 [3]; strain ATCC43255) [µg/mL] | MIC [4] [µg/mL] | MIC (Eubacterium sp. HM-178) [µg/mL] | MIC [5] [µg/mL] | MIC [6] [µg/mL] | MIC [7] [µg/mL] | MIC [8] [µg/mL] | MIC (E. faecium; E. faecium 106 (Van R)) [µg/mL] | MIC (E. faecium; [16]) [µg/mL] | MIC (A. baumanii ATCC17961) [µg/mL] | MIC (E. coli ATCC25922) [µg/mL] | MIC (E. aerogenes ATCC35029) [µg/mL] | activity against Gram-negative organisms (Gram-negative bacteria) | MIC (K. pneumoniae ATCC700603) [µg/mL] | MIC (P. aeruginosa ATCC27853) [µg/mL] | also measured |
| --- | --- | --- | --- | --- | --- | --- | --- | --- | --- | --- | --- | --- | --- | --- | --- | --- | --- | --- | --- | --- | --- |
| FC(F)(F)c1ccc(Oc2ccc(-c3noc(-c4ccc5[nH]ccc5c4)n3)cc2)cc1 [Compound 1] | 2 (≈ 4.75 µM) | 4 (≈ 9.49 µM) | >128 | >128 | 2 (≈ 4.75 µM) | 2 (≈ 4.75 µM) | >128 | 2 (≈ 4.75 µM) | 4 (≈ 9.49 µM) | 1 (≈ 2.37 µM) | 2 (≈ 4.75 µM) | 0.25 (≈ 0.593 µM) | – | – | – | – | – | – | – | – | IC50 (THP-1 cells; THP-1 cells, 24 h, read-out: LDH (IC50)): 69 ± 6 µg/mL (≈ 164 µM); IC50 (THP-1 cells; THP-1 cells, read-out: toxicity IC50 (LDH assay)): > 50 µg/mL; MIC (C. difficile ATCC 43255 [3]; [13]): 4 µg/mL (≈ 9.49 µM); MIC (S. aureus; [14]): 4 µg/mL (≈ 9.49 µM) |
| Oc1ccc(-c2nc(-c3ccc(OC4CCCC4)cc3)no2)cc1 [Compound 2] | 2 (≈ 6.2 µM) | 2 (≈ 6.2 µM) | >128 | >128 | 2 (≈ 6.2 µM) | 2 (≈ 6.2 µM) | >128 | 4 (≈ 12.4 µM) | 2 (≈ 6.2 µM) | 2 (≈ 6.2 µM) | 0.5 (≈ 1.55 µM) | 1 (≈ 3.1 µM) | – | – | – | – | – | – | – | – | IC50 (THP-1 cells; [15]): 18 ± 1 µg/mL (≈ 55.8 µM); MIC (C. difficile ATCC 43255 [3]; [13]): 2 µg/mL (≈ 6.2 µM); MIC (S. aureus; [14]): 2 µg/mL (≈ 6.2 µM) |
| O=[N+]([O-])c1cnc(-c2nc(-c3ccc(OC4CCCC4)cc3)no2)[nH]1 [Compound 57, 3-(4-(Cyclopentyloxy)phenyl)-5-(4-nitro-1H-imidazol-2-yl)-1,2,4-oxadiazole] | 0.125 (≈ 0.366 µM) | 0.25 (≈ 0.732 µM) | – | – | – | – | – | – | – | – | – | – | 128 (≈ 375 µM) | 128 (≈ 375 µM) | > 128 | > 128 | > 128 | no activity | > 128 | > 128 | MIC (C. difficile ATCC 43255 [1]; ATCC43255, C. difficile ATCC43255, read-out: ATCC43255 MIC): 0.25 µg/mL (≈ 0.732 µM); MIC (C. difficile ATCC 43255 [1]; ATCC43255, C. difficile ATCC43255, read-out: MIC): 0.25 µg/mL (≈ 0.732 µM); MIC (C. difficile ATCC 43255 [1]; ATCC43255, strain ATCC43255, read-out: MIC): 0.25 µg/mL (≈ 0.732 µM); IC50 (THP-1 cells; [15]): > 128 µg/mL; IC50 (THP-1 cells; THP-1, read-out: toxicity IC50 (LDH assay)): > 50 µg/mL; MIC (S. aureus; [17]): 64 µg/mL (≈ 188 µM); MIC (S. aureus; Staphylococcus aureus, S. aureus VRS2, read-out: MIC): 32 µg/mL (≈ 93.8 µM); MIC [9, 18]: 32 µg/mL (≈ 93.8 µM); bactericidal or bacteriostatic (C. difficile ATCC 43255 [10]): bactericidal |
| CCc1c(Cl)c(O)c(Cl)c(O)c1C(=O)O[C@H]1[C@H](O)[C@H](OC)[C@H](OC/C2=C\C=C\C[C@H](O)/C(C)=C/[C@H](CC)[C@@H](O[C@@H]3OC(C)(C)[C@@H](OC(=O)C(C)C)[C@H](O)[C@@H]3O)/C(C)=C/C(C)=C/C[C@@H]([C@@H](C)O)OC2=O)O[C@@H]1C [FDX, fidaxomicin] | – | – | 2 (≈ 1.89 µM) | 8 (≈ 7.56 µM) | 0.06 (≈ 0.0567 µM) | 0.06 (≈ 0.0567 µM) | >32 | 16 (≈ 15.1 µM) | >32 | <0.06 | <0.06 | <0.01 | >16 | > 16 | > 128 | > 128 | > 128 | no activity | > 128 | > 128 | MIC (S. aureus; [17]): 64 µg/mL (≈ 60.5 µM); MIC [9, 18]: 16 µg/mL (≈ 15.1 µM); bactericidal or bacteriostatic (C. difficile ATCC 43255 [10]): bactericidal |
| Cc1ncc([N+](=O)[O-])n1CCO [MTZ, metronidazole] | – | – | >32 | – | – | – | >32 | – | – | – | >32 | 0.05 (≈ 0.292 µM) | >16 | > 16 | > 128 | > 128 | > 128 | no activity | > 128 | > 128 | MIC (E. faecium; Enterococcus faecium, NCTC7171, E. faecium NCTC 7171, read-out: MIC): > 128 µg/mL; MIC (S. aureus; S. aureus VRS2): >256 µg/mL; MIC (S. aureus; Staphylococcus aureus): > 256 µg/mL; MIC (S. aureus; Staphylococcus aureus, ATCC27660): > 256 µg/mL; MIC (S. aureus; Staphylococcus aureus, ATCC29213): > 256 µg/mL; MIC [9]: > 256 µg/mL; bactericidal or bacteriostatic (C. difficile ATCC 43255 [10]): bactericidal |
